Measurements as given in patent publication US10611778B2, “Fused bicyclic inhibitors of menin-MLL interaction” (Janssen Pharmaceutica NV, priority 2016, dated 2020).

What was measured:
MV-4-11 = experiment: Proliferation assay (spheroid assay) MV-4-11; type: cell-based, human; details: Homo sapiens, MV4-11, MV-4-11; averaged values over all measurements; read-out: Spheroid assay MV-4-11 (IC50)
Description: The anti-proliferative effect of menin/MLL protein/protein interaction inhibitor test compounds was assessed in human leukemia cell lines. The cell lines MV-4-11 and MOLM14 harbor MLL translocations and express the MLL fusion proteins MLL-AF4 and MLL-AF9, respectively, as well as the wildtype protein from the second allele. […] K562 and KG1 were used as a control cell lines containing two MLL wildtype alleles in order to exclude compounds that display general cytotoxic effects.
MV-4-11 and MOLM14 were cultured in RPMI-1640 (Sigma Aldrich) supplemented with 10% fetal bovine serum (HyClone), 2 mM L-glutamine (Sigma Aldrich) and 50 μg/ml gentamycin (Gibco). K562 were propagated in RPMI-1640 (Sigma Aldrich) supplemented with 20% fetal bovine serum (HyClone), 2 mM L-glutamine (Sigma Aldrich) and 50 μg/ml gentamycin (Gibco). KG1 were cultured in Iscove's MDM (Gibco) supplemented with 20% fetal bovine serum (HyClone), 2 mM L-glutamine (Sigma Aldrich) and 50 μg/ml gentamycin (Gibco).
In order to assess the anti-proliferative effects, 1,500 MV-4-11, 300 MOLM14, 750 K562 or 1,300 KG1 cells were seeded in 200 μl media per well in 96-well round bottom, ultra-low attachment plates (Costar, catalogue number 7007). Cell seeding numbers were chosen based on growth curves to ensure linear growth throughout the experiment. Test compounds were added at different concentrations and the DMSO content was normalized to 0.3%. Cells were incubated for 8 d at 37° C. and 5% CO2. Spheroid like growth was monitored in real-time by live-cell imaging (IncuCyteZOOM, Essenbio, 4× objective) acquiring one image every four hours for 8 d. Confluence (%) as a measure of spheroid size was determined using an integrated analysis tool.
In order to determine the cumulative effect of the test compounds over time, the area under the curve (AUC) in a plot of confluence against time was calculated. Confluence at the beginning of the experiment (t=0) was used as baseline for the AUC calculation.
Absolute IC50 values were calculated according to the following procedure: % Control=(AUC sample/AUC control)*100
AUC control=mean AUC of control values (cells without compound/DMSO as vehicle control)
A non-linear curve fit was applied using the least squares (ordinary) fit method to the plot of % control versus compound concentration. Based on this, the absolute IC50 value (half maximal inhibitory concentration of the test compound causing an anti-proliferative effect of 50% relative to the vehicle control) was calculated.

[1] = biological target: T1, Menin/MLL (terbium chelate-labeled menin, FITC-MBM1 peptide) (Homo sapiens, UniProt O00255, T541A); experiment: Menin/MLL homogenous time-resolved fluorescence (HTRF) assay; type: binding; details: averaged values over all measurements; read-out: Menin HTRF assay (IC50)
T1 construct: Menin (a.a. 1-610-6×his tag) was labeled with terbium cryptate as follows
T1 sequence (O00255 with tags, fused parts or gaps T541A): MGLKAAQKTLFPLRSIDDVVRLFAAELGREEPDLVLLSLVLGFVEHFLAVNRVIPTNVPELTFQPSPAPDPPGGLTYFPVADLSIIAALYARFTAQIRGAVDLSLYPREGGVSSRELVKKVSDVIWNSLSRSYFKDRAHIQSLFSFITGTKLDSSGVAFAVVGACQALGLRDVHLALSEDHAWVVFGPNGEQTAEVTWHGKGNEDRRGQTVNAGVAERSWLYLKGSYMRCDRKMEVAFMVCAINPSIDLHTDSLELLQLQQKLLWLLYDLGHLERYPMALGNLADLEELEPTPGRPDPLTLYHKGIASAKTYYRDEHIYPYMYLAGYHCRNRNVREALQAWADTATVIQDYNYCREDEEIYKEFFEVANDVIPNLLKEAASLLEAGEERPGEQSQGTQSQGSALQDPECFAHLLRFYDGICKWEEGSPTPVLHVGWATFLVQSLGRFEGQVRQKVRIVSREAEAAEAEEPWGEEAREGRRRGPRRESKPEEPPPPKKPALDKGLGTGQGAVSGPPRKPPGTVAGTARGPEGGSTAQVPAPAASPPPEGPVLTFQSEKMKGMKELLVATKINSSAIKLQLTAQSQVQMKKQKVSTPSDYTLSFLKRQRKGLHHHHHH
Description: 3) Menin/MLL Homogenous Time-Resolved Fluorescence (HTRF) Assay
To an untreated, white 384-well microtiter plate was added 40 nL 200× test compound in DMSO and 4 μL 2× terbium chelate-labeled menin (vide infra for preparation) in assay buffer (40 mM Tris-HCl, pH 7.5, 50 mM NaCl, 1 mM DTT and 0.05% Pluronic F-127). After incubation of test compound and terbium chelate-labeled menin for 5 min at ambient temperature, 4 μL 2×FITC-MBM1 peptide (FITC-β-alanine-SARWRFPARPGT-NH2) in assay buffer was added, the microtiter plate centrifuged at 1000 rpm for 1 min and the assay mixtures incubated for 15 min at ambient temperature. The relative amount of menin⋅FITC-MBM1 complex present in an assay mixture is determined by measuring the homogenous time-resolved fluorescence (HTRF) of the terbium/FITC donor/acceptor fluorophore pair using a BMG Pherastar plate reader (ex. 337 nm/terbium em. 490 nm/FITC em. 520 nm) at ambient temperature. The degree of fluorescence resonance energy transfer (the HTRF value) is expressed as the ratio of the fluorescence emission intensities of the FITC and terbium fluorophores (F^em 520 nm/F^em 490 nm). The final concentrations of reagents in the binding assay are 100 pM terbium chelate-labeled menin, 75 nM FITC-MBM1 peptide and 0.5% DMSO in assay buffer. Dose-response titrations of test compounds are conducted using an 11 point, three-fold serial dilution scheme, starting at 31 μM.
Compound potencies were determined by first calculating % inhibition at each compound concentration according to equation 1: % inhibition=((HC−LC)−(HTRF^compound−LC))/(HC−LC))*100 (Eqn 1)
Where LC and HC are the HTRF values of the assay in the presence or absence of a saturating concentration of a compound that competes with FITC-MBM1 for binding to menin, and HTRF^compound is the measured HTRF value in the presence of the test compound. HC and LC HTRF values represent an average of at least 16 replicates per plate.
Where Bottom and Top are the lower and upper asymptotes of the dose-response curve, respectively, IC50 is the concentration of compound that yields 50% inhibition of signal and h is the Hill coefficient.
Preparation of Terbium cryptate labeling of Menin: Menin (a.a. 1-610-6×his tag) was labeled with terbium cryptate as follows. 2 mg of Menin was buffer exchanged into 1× phosphate buffered saline. 16 uM Menin was incubated with 4-fold molar excess NHS-terbium cryptate (Cisbio Bioassays, Bedford, Mass.) for 2 hours at room temperature. The labeled protein was purified away from free label by running the reaction over a Superdex 200 Increase 10/300 GL column at 0.75 ml/min. Peak fractions were collected, aliquoted and frozen at −80° C.

SMILES	IC50 (MV-4-11) [nM]	IC50 [1] [nM]
COc1cncc(CN2CC[C@@H]3CN(c4ncnc5sc(CC(F)(F)F)cc45)C[C@@H]3C2)c1 (single isomer, unassigned) [Compound 46]	1500	105
CC(CN1CC[C@@H]2CN(c3ncnc4sc(CC(F)(F)F)cc34)C[C@@H]2C1)C(F)(F)F (single isomer, unassigned) [Compound 47]	2300	55
CC(CN1CC[C@@H]2CN(c3ncnc4sc(CC(F)(F)F)cc34)C[C@@H]2C1)c1ccccc1 (single isomer, unassigned) [Compound 49]	1900	44
FC(F)(F)Cc1cc2c(N3C[C@H]4CCN(Cc5cnoc5)C[C@H]4C3)ncnc2s1 (single isomer, unassigned) [Compound 51]	2300	62
FC(F)(F)Cc1cc2c(N3C[C@H]4CCN(Cc5cnsc5)C[C@H]4C3)ncnc2s1 (single isomer, unassigned) [Compound 52]	860	41
Cn1cncc1CN1CC[C@@H]2CN(c3ncnc4sc(CC(F)(F)F)cc34)C[C@@H]2C1 (single isomer, unassigned) [Compound 54]	2100	97
FC(F)(F)Cc1cc2c(N3C[C@H]4CCN(Cc5ccnnc5)C[C@H]4C3)ncnc2s1 (single isomer, unassigned) [Compound 55]	3300	75
FC(F)(F)Cc1cc2c(N3C[C@H]4CCN(Cc5cccnc5)C[C@H]4C3)ncnc2s1 (single isomer, unassigned) [Compound 56]	1400	41
FC(F)(F)Cc1cc2c(N3C[C@H]4CCN(CCC5CCOCC5)C[C@H]4C3)ncnc2s1 (single isomer, unassigned) [Compound 59]	1800	212
COc1ccncc1CN1CC[C@@H]2CN(c3ncnc4sc(CC(F)(F)F)cc34)C[C@@H]2C1 (single isomer, unassigned) [Compound 61]	1700	146
FC(F)(F)Cc1cc2c(N3C[C@H]4CCN(Cc5ccc(Cl)nc5Cl)C[C@H]4C3)ncnc2s1 (single isomer, unassigned) [Compound 62]	2200	36
FC(F)(F)Cc1cc2c(N3C[C@H]4CCN(Cc5ccnc(Cl)c5)C[C@H]4C3)ncnc2s1 (single isomer, unassigned) [Compound 65]	1200	56
Cn1ccc(CN2CC[C@@H]3CN(c4ncnc5sc(CC(F)(F)F)cc45)C[C@@H]3C2)cc1=O (single isomer, unassigned) [Compound 68]	2900	266
OCCn1cc(CN2CC[C@@H]3CN(c4ncnc5sc(CC(F)(F)F)cc45)C[C@@H]3C2)cn1 (single isomer, unassigned) [Compound 75]	1000	28
CC(=O)N1CCC(CN2CC[C@@H]3CN(c4ncnc5sc(CC(F)(F)F)cc45)C[C@@H]3C2)CC1 (single isomer, unassigned) [Compound 76]	2900	105
FC(F)(F)Cc1cc2c(N3CC[C@@H]4[C@@H](CCN4Cc4ccc[nH]4)C3)ncnc2s1 (single isomer, unassigned) [Compound 85]	3100	103
OC1(CN2CC[C@@H]3CN(c4ncnc5sc(CC(F)(F)F)cc45)C[C@@H]3C2)CCOCC1 (single isomer, unassigned) [Compound 86]	6600	198
FC(F)(F)Cc1cc2c(N3C[C@H]4CCN(Cc5ccc(C6CC6)nc5)C[C@H]4C3)ncnc2s1 (single isomer, unassigned) [Compound 89]	240	24
O=C(C1CCOCC1)N1CCC(CN2CC[C@@H]3CN(c4ncnc5sc(CC(F)(F)F)cc45)C[C@@H]3C2)CC1 (single isomer, unassigned) [Compound 91]	1200	30
O=C(C1CCCOC1)N1CCC(CN2CC[C@@H]3CN(c4ncnc5sc(CC(F)(F)F)cc45)C[C@@H]3C2)CC1 (single isomer, unassigned) [Compound 92]	450	14
CC(C)(C)CC(=O)N1CCC(CN2CC[C@@H]3CN(c4ncnc5sc(CC(F)(F)F)cc45)C[C@@H]3C2)CC1 (single isomer, unassigned) [Compound 93]	580	20
O=C(c1ccccc1)N1CCC(CN2CC[C@@H]3CN(c4ncnc5sc(CC(F)(F)F)cc45)C[C@@H]3C2)CC1 (single isomer, unassigned) [Compound 94]	430	18
O=C(C1COC1)N1CCC(CN2CC[C@@H]3CN(c4ncnc5sc(CC(F)(F)F)cc45)C[C@@H]3C2)CC1 (single isomer, unassigned) [Compound 95]	2100	69
O=C(c1cccnc1)N1CCC(CN2CC[C@@H]3CN(c4ncnc5sc(CC(F)(F)F)cc45)C[C@@H]3C2)CC1 (single isomer, unassigned) [Compound 96]	1000	45
COCCn1cc(CN2CC[C@@H]3CN(c4ncnc5sc(CC(F)(F)F)cc45)C[C@@H]3C2)cn1 (single isomer, unassigned) [Compound 97]	2000	150
CCOc1ccc(CN2CC[C@@H]3CN(c4ncnc5sc(CC(F)(F)F)cc45)C[C@@H]3C2)cn1 (single isomer, unassigned) [Compound 103]	1100	106
